In data set [1] the test system is ConA-induced T lymphocytes. Description: Anti-proliferative activity against ConA-induced T lymphocytes (CCK-8). The class given is cell-based. The settings on record: Mus musculus, T-lymphocyte; for IC50: induced proliferation of T lymphocytes (ConA), CCK-8, read-out: T cells IC50. On the procedure: (§1) As previously described, the immunosuppressive activity, lymphocyte viability, and antiproliferative activity against HaCaT cells were evaluated using the CCK-8 method ([Zhao et al. 2023], [2024]).
(§2) In the immunosuppressive and lymphocyte viability, the primary tested concentration of all compounds was 20.0 μM, and dexamethasone (Dex) (c = 2.0 μM) was used as a positive control. In the antiproliferative activity against HaCaT cells, the primary tested concentration of all compounds was 40 μM, and the positive control was methotrexate (MTX) (c = 40.0 μM). When the inhibition rates are greater than 50%, the IC50 values of active compounds will be further tested and calculated. All experiments were performed in triplicate.

Data set [2] concerns LPS-induced B lymphocytes. Description: Anti-proliferative activity against LPS-induced B lymphocytes (CCK-8). Conditions: for IC50: induced proliferation of B lymphocytes (LPS), CCK-8, read-out: B cells IC50. The class given is cell-based, mouse. On the procedure:
as §1, §2

Data set [3] is described as follows: Lymphocyte viability (CCK-8). Conditions: mouse, lymphocytes; lymphocyte viability; CCK-8. The class given is cell-based, mouse. The procedure: as §1, §2
The subject of data set [4] is HaCaT cells. Description: Antiproliferative activity against HaCaT cells (CCK-8). The data set is classed as cell-based. The settings on record: Homo sapiens, HaCaT, read-out: IC50 against the proliferation of HaCaT cells. On the procedure: as §1, §2
Data set [5] has as its system induced T cells (Con A 5 μg/mL). Description: EdU proliferation assay, induced T cells. The class given is cell-based, mouse. The settings on record: c = 10 μM; relative to the model group. On the procedure: (§3) EdU fluorescence labeling for cell proliferation of induced T/B lymphocytes (2 × 10^5 cells/well) and HaCaT cells (1 × 10^4 cells/well) of active compounds 10, 19, 23, 32, 38, and 41 (final concentration 10 or 20 μM) was performed as previously reported ([Biram and Shulman 2020]; [Zhao et al. 2024]). EdU (HF488) (the Click-iT™ EdU Flow Cytometry Assay Kit, APExBIO, USA) was added 24 h (final concentration 50 μM, T and B cells) and 4 h (final concentration 10 μM, HaCaT cells) before harvesting the cells. All procedures were performed according to the manufacturer’s instructions for the click reaction. EdU-positive cells and proliferating phase cells were analyzed with a fluorescence microscope.

In data set [6] the test system is induced B cells (LPS 15 μg/mL). Description: EdU proliferation assay, induced B cells. The data set is classed as cell-based, mouse. Conditions: c = 10 μM; relative to the model group. The procedure:
as §3

The test system of data set [7] is HaCaT cells. Description: EdU proliferation assay, HaCaT cells. The class given is cell-based. Conditions: c = 20 μM; compared to the control group. The procedure:
as §3

The next data set has as its system IFN-γ. Description: Cytokine analysis by ELISA of induced T cells: IFN-γ. The class given is cell-based, mouse. The settings on record: ConA-induced T cells, 48 h; all sample groups; P < 0.0001 vs. model. On the procedure: (§4) The mononuclear cell suspensions (2 × 10^5 cells/well) were cultured with ConA (5 μg/mL) in 96-well plates, and indicated concentrations of compounds 2, 15, and 32 were added simultaneously. After a 48-hour culture period, cytokines in the supernatants were quantified using mouse IFN-γ, IL-2, and IL-17A ELISA kits (Mabtech, Sweden), following the manufacturer’s protocol ([Jing et al. 2021]; [Zhao et al. 2024]).
For orientation: ELISA stands for enzyme-linked immunosorbent assay.

The next data set has as its system IL-17A. Description: Cytokine analysis by ELISA of induced T cells: IL-17A. The settings on record: 10 μM; ConA-induced T cells, 48 h; P < 0.01 vs. model. The class given is cell-based, mouse. The procedure: as §4
The test system of data set [8] is NF-κB p65 phosphorylation. Description: Immunofluorescence of p-p65/p65 in HaCaT cells. The class given is cell-based. Conditions: 36 h. On the procedure:
The immunofluorescence protocol was performed using the reported method ([Zhao et al. 2024]). HaCaT cells (2.0 × 10^5 cells/well) were plated onto 6-well plates with glass coverslips and adhered overnight (12 h) before compound addition. After treatment with active compounds 10 (final concentration 31 μM) and 32 (final concentration 27 μM) for 36 h, the supernatant was removed, and the cells were washed twice with PBS, fixed with 4% paraformaldehyde for 15 min, and then washed with PBS three times. After blocking, incubated with NF-κB p65 (p65)/phosphorylated NF-κB p65 (p-p65) antibodies and secondary antibodies (Servicebio, China). Then, cells were counterstained with 4,6-[…]-2-phenylindole (DAPI) for 5 min. After the PBS washing, fluorescent seal liquid was added, and the plate was monitored under an imaging system (Pannoramic MIDI, 3Dhistech, Hungary). The nucleus is blue, and positive cells are green (p-p65) or red (p65). The immunofluorescence areas for each indicator were analyzed in ImageJ.

The subject of data set [9] is lymphocytes. Description: Lymphocyte viability (CCK-8). The class given is cell-based, mouse. Conditions: c = 20 μM. On the procedure: as §1, §2
Another data set deals with IL-2. Description: Cytokine analysis by ELISA of induced T cells: IL-2. The data set is classed as cell-based, mouse. The settings on record: 40 μM; ConA-induced T cells, 48 h; P < 0.01 vs. model. On the procedure: as §4
The subject of data set [10] is ConA-induced T lymphocytes. Description: Anti-proliferative activity against ConA-induced T lymphocytes (CCK-8). The class given is cell-based. Conditions: Mus musculus, T-lymphocyte, c = 40 μM, read-out: Inhibition rate (%) T.
The subject of data set [11] is LPS-induced B lymphocytes. Description: Anti-proliferative activity against LPS-induced B lymphocytes (CCK-8). The data set is classed as cell-based. The settings on record: Mus musculus, Lymphocyte, c = 40 μM, read-out: Inhibition rate (%) B.
Data set [12] has as its system lymphocytes. Description: Lymphocyte viability (CCK-8). The class given is cell-based, mouse. The settings on record: c = 40 μM.

The source of these data is PMC12365674, “Diverse metabolites with anti-psoriasis potential from different fermentations of the fungicolous fungus Xylarialongipes HFG1018” (IMA Fungus, 2025).

The term CC50 denotes the concentration giving 50% cytotoxicity. Read a low CC50 as greater toxicity to the cells. By inhibition is commonly meant the change of the read-out against control, counted positive when it falls.

“Also recorded” adds a separate entry of the source. Where two headings read alike, the source gives them in different places.

With `CO[C@@H]1C=C2[C@@H]3CC[C@H]([C@H](C)/C=C/[C@H](C)C(C)C)[C@@]3(C)CC[C@@H]2[C@@]2(C)CC[C@H](O)C[C@]12O` [Compound 32, (3β,5α,6β,22E)-6-methoxyergosta-7,22-diene-3,5-diol], the IC50 was 3.1 ± 0.2 µM in [1]; 8 to 20 µM in [2] (Mus musculus, Lymphocyte); 6 ± 0.3 µM in data set [2]; 27 ± 1.3 µM with HaCaT cells [4]. In data set [3], this compound showed a CC50 above 20 µM. For the same compound, the “proliferation of induced T cells measured by EdU” value in data set [5] is listed as “significantly suppressed the proliferation”. The “proliferation of induced B cells measured by EdU” value in [6] is reported as “significantly suppressed the proliferation”. For the same compound, the “proliferation rates of HaCaT cells measured by EdU” value in the data set with HaCaT cells [7] is on record as “significantly reduced”. In addition, in the data set on IFN-γ, the IFN-γ secretion result is on record as “significant reduction; also recorded: significantly reduced”. In addition, the IL-17A levels result in the data set with IL-17A is “markedly lowered; also recorded: inhibiting IL-17A secretion”. Also, in [8] (27.0 μM, P < 0.01 vs. Con), the “NF-κB activation (ratio p-p65/p65)” value is “significantly attenuated NF-κB activation”.
Turning to `CCC1=Cc2c(occ(COC)c2=O)CC1` [Compound 10, 6-ethyl-3-(methoxymethyl)-7,8-dihydro-4H-chromen-4-one], the IC50 in data set [1] is above 20 µM; in data set [2] (Mus musculus, Lymphocyte), 8 ± 0.7 µM; in the data set with HaCaT cells [4], 30.9 ± 2.7 µM. In data set [3], this compound came in with a CC50 above 20 µM. In addition, the “proliferation rates of HaCaT cells measured by EdU” value in the data set with HaCaT cells [7] is on record as “significantly reduced”. Besides, the “NF-κB activation (ratio p-p65/p65)” value in data set [8] (31.0 μM, P < 0.0001 vs. Con) was “significantly attenuated NF-κB activation”.
As for `C[C@]1(CCO)CC[C@H]2C(=CC[C@@H]3[C@]2(C)CCC[C@]3(C)C(=O)O)C1` [Compound 15, 16-hydroxyisopimar-7-en-19-oic acid], the inhibition at 20 µM in data set [1] (c = 20 μM, ConA-induced T lymphocytes, read-out: Inhibition rate (%) T) came to 26.4 ± 6.3%; in data set [2] (Mus musculus, Lymphocyte, c = 20 μM, LPS-induced B lymphocytes, read-out: Inhibition rate (%) B) it was 23 ± 4.3%. For the same compound, the “Cell validity (%)” value in the data set with lymphocytes [9] is reported as 89.9 ± 7.5%; in the data set with lymphocytes [12], 80.2 ± 1.8%. In addition, the IFN-γ secretion result with IFN-γ was “significant reduction; also recorded: significantly reduced”. Further, the IL-2 levels entry in the data set with IL-2 is recorded as “significantly reduced”. In addition, the inhibition at 40 µM in [10] was 28.8 ± 5.8%; in data set [11], 29 ± 12.2%.
